According to ChEMBL document CHEMBL1909046, “DrugMatrix in vitro pharmacology data”:

How the values were obtained:
[1] = target: Aldo-keto reductase family 1 member B1 (Rattus norvegicus, UniProt P07943); assay: biochemical; format: tissue-based, Lens of camera-type eye;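 further: inhibition of aldose reductase enzyme activity, measured with DL-glyceraldehyde as the substrate; in other assays of this panel Not Active means under 50% inhibition at 10 µM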
Calcitonin receptor = target: T1, Calcitonin receptor (Homo sapiens, UniProt P30988); format: cell membranes, Membrane; details: t47d; further: in other assays of this panel Not Active means under 50% inhibition at 10 µM
T1 sequence (P30988 whole entry): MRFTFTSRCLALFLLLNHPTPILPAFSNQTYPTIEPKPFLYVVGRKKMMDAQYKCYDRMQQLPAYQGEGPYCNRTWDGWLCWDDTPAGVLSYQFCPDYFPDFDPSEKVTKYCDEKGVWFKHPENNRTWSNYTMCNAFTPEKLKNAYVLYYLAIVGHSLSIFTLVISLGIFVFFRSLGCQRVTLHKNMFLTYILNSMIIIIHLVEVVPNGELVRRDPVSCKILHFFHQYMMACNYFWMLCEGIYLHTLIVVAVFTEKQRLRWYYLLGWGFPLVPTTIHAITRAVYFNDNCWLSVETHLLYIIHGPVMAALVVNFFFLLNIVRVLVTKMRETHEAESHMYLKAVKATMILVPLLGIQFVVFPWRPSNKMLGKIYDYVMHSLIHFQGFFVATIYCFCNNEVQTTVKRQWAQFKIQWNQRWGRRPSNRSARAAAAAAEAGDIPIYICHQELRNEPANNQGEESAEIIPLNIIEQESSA

[2] = DRUGMATRIX: Calcium Channel Type L, Phenylalkylamine radioligand binding (ligand: [3H] (-)-Desmethoxyverapamil (D-888)); format: cell membranes, Rattus norvegicus, Wistar, Brain, Membrane; details: Not Active = under 50% inhibition at 10 µM
D(4) dopamine receptor = target: T2, D(4) dopamine receptor (Homo sapiens, UniProt P21917); assay: DRUGMATRIX: Dopamine D4.2 radioligand binding (ligand: [3H] Spiperone); format: cell membranes, CHO-K1, Membrane; details: cho-k1; Not Active = under 50% inhibition at 10 µM
T2 sequence (P21917 whole entry): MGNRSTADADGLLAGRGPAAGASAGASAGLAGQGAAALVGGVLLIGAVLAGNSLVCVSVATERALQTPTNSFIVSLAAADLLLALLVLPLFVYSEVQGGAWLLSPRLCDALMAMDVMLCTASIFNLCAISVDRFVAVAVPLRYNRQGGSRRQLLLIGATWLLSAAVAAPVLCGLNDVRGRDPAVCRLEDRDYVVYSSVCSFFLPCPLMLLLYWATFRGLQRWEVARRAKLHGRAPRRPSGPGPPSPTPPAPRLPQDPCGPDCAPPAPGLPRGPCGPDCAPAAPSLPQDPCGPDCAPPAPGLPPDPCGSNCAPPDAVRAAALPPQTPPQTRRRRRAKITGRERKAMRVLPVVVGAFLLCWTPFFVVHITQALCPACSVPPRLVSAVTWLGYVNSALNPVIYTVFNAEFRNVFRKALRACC

Endothelin-1 receptor = target: T3, Endothelin-1 receptor (Homo sapiens, UniProt P25101); format: cell membranes, CHO-K1, Membrane; details: cho-k1; further: in other assays of this panel Not Active means under 50% inhibition at 10 µM
T3 sequence (P25101 whole entry): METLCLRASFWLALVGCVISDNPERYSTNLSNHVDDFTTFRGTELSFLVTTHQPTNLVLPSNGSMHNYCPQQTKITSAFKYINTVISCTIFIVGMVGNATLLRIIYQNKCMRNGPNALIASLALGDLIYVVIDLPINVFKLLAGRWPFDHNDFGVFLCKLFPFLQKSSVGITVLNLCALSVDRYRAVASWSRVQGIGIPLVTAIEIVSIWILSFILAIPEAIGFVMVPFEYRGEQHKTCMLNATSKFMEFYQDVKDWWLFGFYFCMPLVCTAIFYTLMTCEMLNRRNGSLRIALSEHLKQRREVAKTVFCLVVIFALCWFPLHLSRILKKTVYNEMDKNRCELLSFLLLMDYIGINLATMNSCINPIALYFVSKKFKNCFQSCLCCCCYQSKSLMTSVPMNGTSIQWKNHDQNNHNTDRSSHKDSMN

[3] = DRUGMATRIX: GABAA, Muscimol, Central radioligand binding (ligand: [3H] Muscimol); format: cell membranes, Rattus norvegicus, Wistar, Brain, Membrane; details: Not Active = under 50% inhibition at 10 µM
[4] = DRUGMATRIX: Glutamate, NMDA, Agonism radioligand binding (ligand: [3H] CGP-39653); format: cell membranes, Rattus norvegicus, Wistar, Cerebral cortex, Membrane; details: Not Active = under 50% inhibition at 10 µM
[5] = target: T4, Angiotensin-converting enzyme (Oryctolagus cuniculus, UniProt P12822); format: tissue-based, Lung;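 further: enzymatic inhibition of angiotensin-converting enzyme measured with FAPGG as the substrate; in other assays of this panel Not Active means under 50% inhibition at 10 µM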
T4 sequence (P12822 whole entry): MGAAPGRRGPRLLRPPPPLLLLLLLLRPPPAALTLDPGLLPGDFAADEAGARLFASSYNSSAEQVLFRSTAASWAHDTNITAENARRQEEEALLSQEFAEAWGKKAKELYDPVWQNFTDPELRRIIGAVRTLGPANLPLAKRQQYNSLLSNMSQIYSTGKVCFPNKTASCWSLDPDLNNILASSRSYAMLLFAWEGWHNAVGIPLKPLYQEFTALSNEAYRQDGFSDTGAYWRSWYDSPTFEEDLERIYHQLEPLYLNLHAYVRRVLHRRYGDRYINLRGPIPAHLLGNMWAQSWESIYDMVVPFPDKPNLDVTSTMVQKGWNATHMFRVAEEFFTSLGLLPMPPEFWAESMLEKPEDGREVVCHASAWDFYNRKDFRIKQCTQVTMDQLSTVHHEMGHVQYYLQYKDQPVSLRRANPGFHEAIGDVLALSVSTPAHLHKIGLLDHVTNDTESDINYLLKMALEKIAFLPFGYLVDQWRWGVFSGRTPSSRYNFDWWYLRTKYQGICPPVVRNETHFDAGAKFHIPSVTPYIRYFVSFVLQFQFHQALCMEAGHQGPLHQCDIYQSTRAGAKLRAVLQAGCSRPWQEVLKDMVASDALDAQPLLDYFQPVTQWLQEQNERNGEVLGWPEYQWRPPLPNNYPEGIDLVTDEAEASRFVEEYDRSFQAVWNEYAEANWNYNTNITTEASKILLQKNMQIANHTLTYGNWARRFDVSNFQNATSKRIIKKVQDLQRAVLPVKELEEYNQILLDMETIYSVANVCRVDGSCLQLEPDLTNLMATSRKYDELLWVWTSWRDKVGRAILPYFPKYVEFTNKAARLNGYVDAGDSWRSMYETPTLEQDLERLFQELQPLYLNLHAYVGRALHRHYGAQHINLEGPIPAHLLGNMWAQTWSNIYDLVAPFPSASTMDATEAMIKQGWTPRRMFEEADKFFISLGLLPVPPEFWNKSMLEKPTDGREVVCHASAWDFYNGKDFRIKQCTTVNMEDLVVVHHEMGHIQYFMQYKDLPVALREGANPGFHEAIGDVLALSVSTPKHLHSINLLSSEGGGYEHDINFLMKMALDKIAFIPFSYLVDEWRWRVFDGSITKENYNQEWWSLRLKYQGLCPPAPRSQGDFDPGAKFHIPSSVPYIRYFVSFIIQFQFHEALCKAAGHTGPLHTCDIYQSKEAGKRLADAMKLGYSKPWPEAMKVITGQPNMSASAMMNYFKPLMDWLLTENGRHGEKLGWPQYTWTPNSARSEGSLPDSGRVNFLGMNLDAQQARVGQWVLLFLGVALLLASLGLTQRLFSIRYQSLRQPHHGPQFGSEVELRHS

Cc1cn[nH]c1 [FOMEPIZOLE]
Not Active: IC50 [1] | IC50 (Calcitonin receptor) | IC50 [2] | Ki [2] | IC50 (D(4) dopamine receptor) | IC50 (Endothelin-1 receptor) | IC50 [3] | Ki [3] | IC50 [4] | Ki [4] | IC50 [5]

NC[C@@H]1O[C@H](O[C@H]2[C@@H](O)[C@H](O[C@@H]3[C@@H](O)[C@H](N)C[C@H](N)[C@H]3O[C@H]3O[C@H](CN)[C@@H](O)[C@H](O)[C@H]3N)O[C@@H]2CO)[C@H](N)[C@@H](O)[C@@H]1O [FRAMYCETIN]
Not Active: IC50 [1] | IC50 (Calcitonin receptor) | IC50 [2] | Ki [2] | IC50 (D(4) dopamine receptor) | IC50 (Endothelin-1 receptor) | IC50 [3] | Ki [3] | IC50 [4] | Ki [4] | IC50 [5]

C[C@H]([C@](O)(Cn1cncn1)c1ccc(F)cc1F)S(C)(=O)=O [GENACONAZOLE]
Not Active: IC50 [1] | IC50 (Calcitonin receptor) | IC50 [2] | Ki [2] | IC50 (D(4) dopamine receptor) | IC50 (Endothelin-1 receptor) | IC50 [3] | Ki [3] | IC50 [4] | Ki [4] | IC50 [5]

Cc1cnc(C(=O)NCCc2ccc(S(=O)(=O)NC(=O)NC3CCCCC3)cc2)cn1 [GLIPIZIDE]
Not Active: IC50 [1] | IC50 (Calcitonin receptor) | IC50 [2] | Ki [2] | IC50 (D(4) dopamine receptor) | IC50 (Endothelin-1 receptor) | IC50 [3] | Ki [3] | IC50 [4] | Ki [4] | IC50 [5]

Cc1c(F)c(N2CCNC(C)C2)cc2c1c(=O)c(C(=O)O)cn2C1CC1 (configuration not stated) [GREPAFLOXACIN]
Not Active: IC50 [1] | IC50 (Calcitonin receptor) | IC50 [2] | Ki [2] | IC50 (D(4) dopamine receptor) | IC50 (Endothelin-1 receptor) | IC50 [3] | Ki [3] | IC50 [4] | Ki [4] | IC50 [5]

COc1ccccc1OCC(O)CO (configuration not stated) [GUAIFENESIN]
Not Active: IC50 [1] | IC50 (Calcitonin receptor) | IC50 [2] | Ki [2] | IC50 (D(4) dopamine receptor) | IC50 (Endothelin-1 receptor) | IC50 [3] | Ki [3] | IC50 [4] | Ki [4] | IC50 [5]

N=C(N)N/N=C/c1c(Cl)cccc1Cl [GUANABENZ]
Not Active: IC50 [1] | IC50 (Calcitonin receptor) | IC50 [2] | Ki [2] | IC50 (D(4) dopamine receptor) | IC50 (Endothelin-1 receptor) | IC50 [3] | Ki [3] | IC50 [4] | Ki [4] | IC50 [5]
